Laboratory results reported in ChEMBL document CHEMBL1201862, “PubChem BioAssay data set” (2004).
Activity calls are given as the source filed them.

Key:
[1] = biological target: T1, Cytochrome P450 1A2 (Homo sapiens, UniProt P05177);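 also: PubChem cytochrome P450 panel assay, CYP1A2 panel member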
T1 sequence (P05177 whole entry): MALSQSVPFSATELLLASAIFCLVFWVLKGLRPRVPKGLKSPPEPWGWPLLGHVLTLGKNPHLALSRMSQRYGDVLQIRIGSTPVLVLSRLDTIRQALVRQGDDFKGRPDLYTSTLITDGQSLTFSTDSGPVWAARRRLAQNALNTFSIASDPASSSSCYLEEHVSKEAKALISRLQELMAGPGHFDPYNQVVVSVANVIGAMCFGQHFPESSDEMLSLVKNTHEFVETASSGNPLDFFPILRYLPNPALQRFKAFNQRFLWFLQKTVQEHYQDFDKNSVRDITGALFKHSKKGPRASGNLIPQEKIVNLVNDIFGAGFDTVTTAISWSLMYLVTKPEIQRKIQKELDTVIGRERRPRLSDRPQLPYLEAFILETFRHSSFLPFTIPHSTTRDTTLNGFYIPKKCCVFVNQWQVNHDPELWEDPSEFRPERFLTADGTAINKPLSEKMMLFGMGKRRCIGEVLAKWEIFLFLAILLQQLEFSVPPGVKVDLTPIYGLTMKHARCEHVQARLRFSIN

[2] = biological target: Cytochrome P450 2D6 (Homo sapiens, UniProt P10635);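 also: CYP2D6 member of a cytochrome P450 panel assay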
Chain of Cytochrome P450 2D6 (P10635 whole entry): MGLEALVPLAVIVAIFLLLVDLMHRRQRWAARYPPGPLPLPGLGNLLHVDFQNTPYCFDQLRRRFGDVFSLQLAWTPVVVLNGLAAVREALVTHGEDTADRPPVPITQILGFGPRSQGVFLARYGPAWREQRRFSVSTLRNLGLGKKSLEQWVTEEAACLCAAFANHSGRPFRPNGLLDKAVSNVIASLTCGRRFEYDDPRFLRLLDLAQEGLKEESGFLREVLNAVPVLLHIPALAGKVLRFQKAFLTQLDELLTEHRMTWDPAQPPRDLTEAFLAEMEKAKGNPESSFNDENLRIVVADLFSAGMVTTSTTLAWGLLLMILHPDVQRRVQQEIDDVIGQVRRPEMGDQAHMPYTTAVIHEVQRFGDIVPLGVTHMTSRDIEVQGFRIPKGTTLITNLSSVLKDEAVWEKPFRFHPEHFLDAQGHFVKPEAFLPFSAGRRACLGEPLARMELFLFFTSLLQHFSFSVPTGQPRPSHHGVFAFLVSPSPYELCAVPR

[3] = biological target: Cytochrome P450 2C19 (Homo sapiens, UniProt P33261); experiment: Cytochrome panel assay with activity outcomes. Panel member name: p450-cyp2c19 Compounds with AC50 equal or less than 10 uM are considered active; assay type: functional; conditions: read-out: AC50
Chain of Cytochrome P450 2C19 (P33261 whole entry): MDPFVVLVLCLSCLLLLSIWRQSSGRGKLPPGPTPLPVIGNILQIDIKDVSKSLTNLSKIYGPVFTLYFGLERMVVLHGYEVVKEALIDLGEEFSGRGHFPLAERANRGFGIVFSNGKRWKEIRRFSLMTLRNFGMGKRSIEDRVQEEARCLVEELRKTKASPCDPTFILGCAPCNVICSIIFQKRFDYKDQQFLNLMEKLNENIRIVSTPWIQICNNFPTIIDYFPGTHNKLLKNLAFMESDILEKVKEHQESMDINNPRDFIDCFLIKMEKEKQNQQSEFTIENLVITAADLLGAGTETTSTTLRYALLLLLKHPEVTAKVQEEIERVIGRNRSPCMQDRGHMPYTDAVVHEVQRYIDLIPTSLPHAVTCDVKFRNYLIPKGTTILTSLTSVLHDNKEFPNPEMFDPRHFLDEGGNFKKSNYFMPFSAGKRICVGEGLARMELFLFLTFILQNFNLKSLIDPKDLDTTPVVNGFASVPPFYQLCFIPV

[4] = biological target: Cytochrome P450 3A4 (Homo sapiens, UniProt P08684);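 also: CYP3A4 tested as one member of a cytochrome P450 panel screen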
Chain of Cytochrome P450 3A4 (P08684 whole entry): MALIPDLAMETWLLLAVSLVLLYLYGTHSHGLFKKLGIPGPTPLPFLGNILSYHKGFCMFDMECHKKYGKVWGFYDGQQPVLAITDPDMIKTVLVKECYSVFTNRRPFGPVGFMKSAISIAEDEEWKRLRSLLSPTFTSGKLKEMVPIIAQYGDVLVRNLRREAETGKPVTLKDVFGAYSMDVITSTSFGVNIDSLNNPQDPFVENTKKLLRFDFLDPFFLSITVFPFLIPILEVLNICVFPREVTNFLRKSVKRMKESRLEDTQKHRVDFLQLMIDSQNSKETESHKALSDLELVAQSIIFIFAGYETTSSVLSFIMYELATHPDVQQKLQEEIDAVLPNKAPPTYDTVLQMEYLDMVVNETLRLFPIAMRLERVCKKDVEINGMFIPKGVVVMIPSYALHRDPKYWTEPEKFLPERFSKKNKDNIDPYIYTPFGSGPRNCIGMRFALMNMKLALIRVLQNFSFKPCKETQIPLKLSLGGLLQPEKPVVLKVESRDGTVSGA

[5] = biological target: Cytochrome P450 2C9 (Homo sapiens, UniProt P11712)
Chain of Cytochrome P450 2C9 (P11712 whole entry): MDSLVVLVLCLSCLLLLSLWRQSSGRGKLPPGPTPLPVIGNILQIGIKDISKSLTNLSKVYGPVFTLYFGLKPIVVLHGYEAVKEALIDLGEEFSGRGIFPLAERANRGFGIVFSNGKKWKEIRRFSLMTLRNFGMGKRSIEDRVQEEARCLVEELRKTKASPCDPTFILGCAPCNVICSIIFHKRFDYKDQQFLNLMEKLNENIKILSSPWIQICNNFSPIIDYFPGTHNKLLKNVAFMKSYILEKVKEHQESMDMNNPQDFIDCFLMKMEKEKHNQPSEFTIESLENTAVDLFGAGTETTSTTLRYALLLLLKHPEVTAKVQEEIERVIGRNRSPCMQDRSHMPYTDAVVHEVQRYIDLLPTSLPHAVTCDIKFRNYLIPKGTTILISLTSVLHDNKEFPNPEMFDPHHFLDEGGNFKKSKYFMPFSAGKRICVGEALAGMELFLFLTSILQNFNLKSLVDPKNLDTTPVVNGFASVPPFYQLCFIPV

[6] = Luminescence Cell-Based Dose Response HTS to Identify Activators of Luciferase Translation or Activity in H4 […] Cells. [Related pubchem assays: 1829 (Project Summary), 1814 (Primary HTS)]; assay type: functional
[7] = test system: H4; experiment: Luminescence Cell-Based Dose Response HTS to Identify Activators of 5'UTR Stem-Loop Driven Prion Protein mRNA Translation in H4 Neuroglioblastoma Cells. [Related pubchem assays: 1829 (Project Summary), 1814 (Primary HTS)]; assay type: functional; conditions: Homo sapiens
[8] = biological target: T2, Replicative DNA helicase DnaB (Mycobacterium tuberculosis, UniProt P9WMR3); experiment: DnaB intein splicing inhibitors, dose response, biochemical, cell-free fluorescence (AID 449749); assay type: functional
T2 sequence (P9WMR3 whole entry): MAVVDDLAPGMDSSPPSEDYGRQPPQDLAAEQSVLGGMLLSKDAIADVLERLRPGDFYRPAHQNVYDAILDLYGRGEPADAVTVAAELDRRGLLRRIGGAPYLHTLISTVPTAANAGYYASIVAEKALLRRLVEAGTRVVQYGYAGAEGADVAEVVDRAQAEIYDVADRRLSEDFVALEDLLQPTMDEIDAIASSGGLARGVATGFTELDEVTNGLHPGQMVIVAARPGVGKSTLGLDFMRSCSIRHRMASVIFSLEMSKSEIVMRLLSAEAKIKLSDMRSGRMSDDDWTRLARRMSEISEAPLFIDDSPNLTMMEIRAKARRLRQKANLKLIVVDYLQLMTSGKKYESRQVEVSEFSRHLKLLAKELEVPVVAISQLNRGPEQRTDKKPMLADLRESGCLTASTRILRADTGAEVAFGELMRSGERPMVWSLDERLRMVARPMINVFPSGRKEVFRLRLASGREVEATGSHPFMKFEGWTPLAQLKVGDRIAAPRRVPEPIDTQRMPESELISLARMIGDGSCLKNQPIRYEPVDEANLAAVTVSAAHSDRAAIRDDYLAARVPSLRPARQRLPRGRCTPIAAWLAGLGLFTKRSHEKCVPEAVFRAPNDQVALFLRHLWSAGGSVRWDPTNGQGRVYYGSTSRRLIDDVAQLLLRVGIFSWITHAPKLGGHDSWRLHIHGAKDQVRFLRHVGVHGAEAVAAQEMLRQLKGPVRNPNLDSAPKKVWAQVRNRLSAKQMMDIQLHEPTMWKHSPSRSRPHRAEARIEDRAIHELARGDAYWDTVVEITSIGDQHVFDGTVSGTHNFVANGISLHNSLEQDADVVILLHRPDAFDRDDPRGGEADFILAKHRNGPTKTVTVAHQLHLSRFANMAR

[9] = biological target: T3, Protein RecA (Mycobacterium tuberculosis, UniProt P9WHJ3); experiment: Fluorescence Cell-Free Homogeneous Dose Retest to Identify Inhibitors of RecA-Intein Splicing Activity. [Related pubchem assays (depositor defined):AID2097, AID2223, AID489010, AID492950]; assay type: functional
T3 sequence (P9WHJ3 whole entry): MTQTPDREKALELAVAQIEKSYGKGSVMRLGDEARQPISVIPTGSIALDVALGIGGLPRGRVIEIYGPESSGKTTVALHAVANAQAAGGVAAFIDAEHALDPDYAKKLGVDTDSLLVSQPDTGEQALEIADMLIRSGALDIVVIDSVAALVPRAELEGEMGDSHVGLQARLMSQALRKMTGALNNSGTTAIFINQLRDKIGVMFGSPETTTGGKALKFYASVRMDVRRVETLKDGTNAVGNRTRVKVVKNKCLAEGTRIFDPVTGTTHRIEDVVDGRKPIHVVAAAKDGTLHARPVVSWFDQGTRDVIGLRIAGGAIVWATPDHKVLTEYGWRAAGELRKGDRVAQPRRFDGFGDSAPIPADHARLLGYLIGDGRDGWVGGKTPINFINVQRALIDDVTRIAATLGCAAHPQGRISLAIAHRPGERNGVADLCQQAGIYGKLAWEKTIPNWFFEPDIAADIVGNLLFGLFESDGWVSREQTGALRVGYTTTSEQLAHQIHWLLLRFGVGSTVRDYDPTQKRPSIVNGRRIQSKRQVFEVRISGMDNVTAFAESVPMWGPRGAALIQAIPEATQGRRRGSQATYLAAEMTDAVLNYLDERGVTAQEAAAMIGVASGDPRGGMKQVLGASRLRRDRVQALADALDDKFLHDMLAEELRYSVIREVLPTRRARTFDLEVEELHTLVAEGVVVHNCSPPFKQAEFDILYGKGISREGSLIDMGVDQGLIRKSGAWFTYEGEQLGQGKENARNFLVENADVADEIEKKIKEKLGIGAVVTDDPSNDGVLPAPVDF

[10] = NIH-3T3 fibroblast cytotoxicity, dose response, cytotoxicity control, cell-based, fluorescence, Alamar Blue, secondary assay (AID 2327); assay type: functional;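 also: NIH-3T3 mouse fibroblasts cultured with fluconazole at 8 µg/mL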

Structure (SMILES) | AC50 [2] | AC50 [4] | AC50 [5] | other results
CCCCSc1nc(C)cc(N=C(S)Nc2ccc(OC)cc2)n1 | – | – | – | AC50 [1]: 4.47 µM (inconclusive)
CCCC(=O)Nc1c2c(nn1-c1ccc(C)cc1C)CSC2 | 28.2 µM (inconclusive) | – | – | AC50 [1]: 12.6 µM (inconclusive)
O=C(c1cnc(N2CCN(c3ncccn3)CC2)c2ccccc12)N1CCN(c2ccccn2)CC1 | – | – | – | AC50 [1]: 0.0251 µM (inconclusive)
C=CC[C@@H]1C=C[C@H](O/N=C(\C)CCN2CCc3nc(CC)c(CC)cc3C2)[C@H](CO)O1 | 3.98 µM (inconclusive) | – | – | –
O=S(=O)(c1ccccc1)N1CCC2(CC1)CN(c1ccccn1)C2 | 20 µM (inconclusive) | 12.6 µM (inconclusive) | – | AC50 [3]: 10 µM (inconclusive)
c1ccc(N2CCC3(CCNCC3)CC2)nc1 | – | 25.1 µM (inconclusive) | 31.6 µM (inconclusive) | AC50 [3]: 25.1 µM (inconclusive)
O=C(O)CN1CCN(Cc2ccc(F)cc2Cl)C1=O | 20 µM (inconclusive) | – | – | –
COC(=O)[C@H](Cc1ccccc1)NC(=O)N1CCN(Cc2ccccc2)CC1 | – | 14.1 µM (inconclusive) | 0.01 µM (inconclusive) | –
CCNc1ncc2nc(-c3cccs3)c(=O)n(CCc3ccccc3)c2n1 | 20 µM (inconclusive) | 15.8 µM (inconclusive) | – | –
Cc1cccc(Nc2ccccc2C(=O)OCC(=O)NCc2ccco2)c1C | – | – | 11.2 µM (inconclusive) | –
C[C@@H](C(=O)Nc1ccc2ccccc2c1)[C@@H]1C[C@@]1(C)[C@@H](NC(=O)Oc1ccc(F)cc1)c1ccccc1 | – | – | 0.251 µM (inconclusive) | –
CCC(C)NC(=O)CCS(=O)(=O)c1ccc(Br)s1 (stereo not drawn) | 28.2 µM (inconclusive) | – | 12.6 µM (inconclusive) | –
CCc1ccc(OCC(=O)NC(=S)Nc2ccc(C)cc2C)c(Br)c1 | – | 31.6 µM (inconclusive) | 0.631 µM (inconclusive) | AC50 [1]: 4.47 µM (inconclusive)
Cc1noc(C)c1-c1nccc(NCCN2CCOCC2)n1 | 20 µM (inconclusive) | 20 µM (inconclusive) | – | –
FC(F)(F)c1cc(-c2ccco2)nc(NCc2cccs2)n1 | 20 µM (inconclusive) | – | – | AC50 [3]: 1.26 µM (inconclusive)
Cc1ccc(-n2c(C)c(C)c3c(NCCCO)ncnc32)cc1 | – | – | – | EC50 [6]: 119 µM (active); EC50 [7]: > 120 µM (not active)
COc1ccccc1-c1cncnc1N(C)Cc1ccco1 | 25.1 µM (inconclusive) | – | – | –
COc1ccc(C2=Nc3c(c(=O)n(C)c(=O)n3C)C(C(F)(F)F)(C(F)(F)F)N2)cc1 | – | 14.1 µM (inconclusive) | – | AC50 [1]: 11.2 µM (inconclusive)
O=C(NCCOc1nc(N2CCOCC2)nc(N2CCOCC2)n1)Nc1ccccc1 | – | 22.4 µM (inconclusive) | 15.8 µM (inconclusive) | –
CC(C)(C)C1CCC2(CC1)CCN(CCCN1CCOCC1)CC2 | 3.98 µM (inconclusive) | – | – | –
COc1ccc(C2C(C#N)=C(N)N(Nc3ccccc3)C3=C2C(=O)CC(C)(C)C3)cc1C (stereo not drawn) | – | – | – | AC50 [1]: 39.8 µM (inconclusive)
Cc1ccc(-n2c(C)cc(/C=C(\C#N)C(=O)NCC3CCCO3)c2C)cc1 (stereo not drawn) | 14.1 µM (inconclusive) | 31.6 µM (inconclusive) | – | –

Structure (SMILES) | AC50 [2] | AC50 [4] | AC50 [5] | other results
COC(=O)c1cc2c(ccn2-c2ccc(F)cc2)n1C(C)C | – | 25.1 µM (inconclusive) | 22.4 µM (inconclusive) | –
c1ccc(Nc2ncnc3ccc(-c4ccc5c(c4)OCO5)cc23)cc1 | – | – | 1.58 µM (inconclusive) | –
CN(C)c1ncc2nc(-c3ccc(F)cc3)c(=O)n(CCC#N)c2n1 | 0.501 µM (inconclusive) | – | – | AC50 [1]: 1.26 µM (inconclusive)
Cc1ccc(C)c(Nc2nc3nonc3nc2N2CCOCC2)c1 | – | – | 0.355 µM (inconclusive) | –
CN1CCN(c2ncnc3ccc(-c4cccc(NS(C)(=O)=O)c4)cc23)CC1 | – | 12.6 µM (inconclusive) | – | AC50 [1]: 25.1 µM (inconclusive)
CN(C)C(=S)N=Nc1[nH]c2ccccc2c1O | – | – | – | AC50 [8]: 10.7 µM (active); EC50 [9]: 6.07 µM (active)
Cc1c(C=O)c2ccccn2c1C(=O)c1ccncc1 | 25.1 µM (inconclusive) | 10 µM (inconclusive) | – | –
COc1cccc(NC(=O)NCCC2=CCCCC2)c1 | – | – | – | EC50 [6]: 51 µM (active); EC50 [7]: 0.324 µM (active)
O=C(NCCCN1CCCCCC1)[C@@H](c1ccccc1)C1CCCCC1 | – | – | – | AC50 [1]: 31.6 µM (inconclusive)
Cc1nn2c(NCC(C)C)c3c(nc2c1-c1ccccc1)CCC3 | – | 10 µM (inconclusive) | 0.708 µM (inconclusive) | –
CCOc1ccc(N2CC(C(=O)NCc3cccc(C)c3)CC2=O)cc1 (stereo not drawn) | – | – | – | AC50 [1]: 14.1 µM (inconclusive)
CCCCNC(=O)C(=O)c1ccccc1NC(C)=O | – | – | – | AC50 [3]: 22.4 µM (inconclusive); AC50 [1]: 39.8 µM (inconclusive)
CC(C)On1c(SC(C)C)nc2ccccc2c1=O | – | – | 31.6 µM (inconclusive) | AC50 [3]: 28.2 µM (inconclusive)
COc1ccc(S(=O)(=O)N(CC(=O)N2CCCC2)Cc2ccccc2)cc1 | – | – | 1 µM (inconclusive) | –
CCOC(=O)CSc1nnc(Cc2ccccc2)n1-c1cccc(Cl)c1 | 0.0891 µM (inconclusive) | – | 39.8 µM (inconclusive) | AC50 [1]: 25.1 µM (inconclusive)
Cc1cc(C)c2c(-n3cccc3)[nH]nc2n1 | – | – | 6.31 µM (inconclusive) | –
CC(O)(CS(=O)(=O)c1cccc(C(F)(F)F)c1)C(=O)Nc1ccc(C(F)(F)F)cc1 (stereo not drawn) | 0.0224 µM (inconclusive) | – | – | –
COc1cc(N)c(Cl)cc1C(=O)N[C@@H]1CN2CCC1CC2 | 39.8 µM (inconclusive) | – | – | –
O=[N+]([O-])c1ccc(/C=N/Nc2cc(Cl)nc(-c3ccccc3)n2)cc1 | – | – | 0.00562 µM (inconclusive) | –
C/C(=N\Nc1ccc(Cl)cc1)c1c(O)cc(C)oc1=O | – | – | – | EC50 [10]: 29.4 µM (active)
c1ccc(C[C@@H](c2ccccc2)N2CCCCC2)cc1 | – | 31.6 µM (inconclusive) | – | AC50 [3]: 7.94 µM (inconclusive); AC50 [1]: 15.8 µM (inconclusive)
N#Cc1cccc(-c2cncnc2NCc2ccccc2)c1 | 20 µM (inconclusive) | – | – | –
